According to the supplement of paper PMC11781733:
Structures can show the parent of a compound that is named as a salt.

Key:
Conditions in all cases: exposure time: 15 min to 3 h acute
Dugesia japonica [1] = assay: speed second 30 s blue light vs vehicle (% change vs vehicle); higher = higher incidence or increase relative to vehicle control
How it was run: (§1)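 Values are median percent changes in crawling speed of intact, fasted Dugesia japonica, measured in the dark or during blue light by automated tracking and normalised per worm to the plate's vehicle median. Single worms in 200 μL per well of 48-well plates were tested 15 min to 3 h after exposure, with 0.5% DMSO or water as vehicle, and worms that crawled out were excluded.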

Dugesia japonica [2] = assay: speed in dark vs vehicle (% change vs vehicle); higher = higher incidence or increase relative to vehicle control
Method: (§2)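 Adult asexual Dugesia japonica planarians (1 per well, 48-well plate, n=24 over technical triplicates) were exposed acutely (15 min to 3 h) to each compound (0.5% DMSO or water vehicle) and screened on a robotic platform for crawl-out, stickiness, body shape, phototaxis, noxious-heat scrunching and locomotion endpoints. Binary endpoints are incidence rate x100 normalised to in-plate vehicle controls. Continuous endpoints are the median response normalised to the plate vehicle median, as % change or difference. Negative incidences after vehicle subtraction were set to 0.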

Dugesia japonica [3] = assay: loss of phototaxis incidence (% planarians (vehicle-normalised)); higher = higher incidence or increase relative to vehicle control
How it was run: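 The endpoint was loss of phototaxis, scored yes/no by automated object tracking in intact, fasted Dugesia japonica kept singly in wells. Plates had 48 wells holding 200 μL, and worms were tested 15 min to 3 h after exposure in 0.5% DMSO or water vehicle. The incidence rate ×100 was normalised to in-plate vehicle controls, with negatives set to 0 and escaped worms excluded.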

Dugesia japonica [4] = assay: crawl-out incidence (% planarians); higher = higher incidence or increase relative to vehicle control
Method: as §2, with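 “x100.” for “x100 normalised to in-plate vehicle controls.”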

Dugesia japonica [5] = assay: speed first 30 s blue light vs vehicle (% change vs vehicle); higher = higher incidence or increase relative to vehicle control
How it was run: as §1

Dugesia japonica [6] = assay: C-shape incidence (% planarians (vehicle-normalised)); higher = higher incidence or increase relative to vehicle control
How it was run: (§3)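 Values are the incidence of each body shape or of any abnormal shape, ×100, relative to in-plate vehicle controls, and negatives are set to 0. Fasted D. japonica planarians (5–7 days), one per 200 μL well in sealed 48-well plates, were scored blind by hand within 15 minutes–3 hours of exposure to at least 5 concentrations; worms that crawled out were excluded.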

Dugesia japonica [7] = assay: corkscrew incidence (% planarians (vehicle-normalised)); higher = higher incidence or increase relative to vehicle control
How it was run: as §3

Dugesia japonica [8] = assay: resting fraction in dark vs vehicle (difference in fraction x100 vs vehicle); higher = higher incidence or increase relative to vehicle control
How it was run: (§4)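 Values give the median resting fraction in the dark or under blue light, obtained by automated tracking with the plate's vehicle median subtracted from each worm and the difference multiplied by 100. Intact, fasted Dugesia japonica were placed one per well of a 48-well plate in 200 μL, eight per concentration per plate in technical triplicate. Tracking ran 15 min to 3 h after exposure in 0.5% DMSO or water vehicle, and any worm that crawled out was excluded.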

Dugesia japonica [9] = assay: noxious heat displacement strength vs vehicle (% change vs vehicle); higher = higher incidence or increase relative to vehicle control
How it was run: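 With automated object tracking, the scrunching assay gave displacement strength under noxious heat for intact, fasted Dugesia japonica, each normalised to its plate's vehicle median and summarised as the median percent change. Worms sat singly in 200 μL in 48-well plates and were tested 15 min to 3 h after exposure in 0.5% DMSO or water vehicle; those that crawled out were excluded.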

Dugesia japonica [10] = assay: pharynx extrusion incidence (% planarians (vehicle-normalised)); higher = higher incidence or increase relative to vehicle control
How it was run: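 Pharynx extrusion was scored manually and blind as a body-shape category, and its incidence was normalised to in-plate vehicle controls. Individual intact, fasted Dugesia japonica were kept in 200 μL per well of 48-well plates and tested 15 min to 3 h after exposure in water or 0.5% DMSO vehicle. Negatives were set to 0, and worms that crawled out were excluded.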

Dugesia japonica [11] = assay: anxiety (time in outer well region) vs vehicle (% change vs vehicle); higher = higher incidence or increase relative to vehicle control
How it was run: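 Time in the outer portion of each well was tracked by software for individual planarians, excluding any that crawled out, and the median normalized response is given. Worms (D. japonica, fasted 5–7 days) sat one per well in 200 μL in sealed 48-well plates, were exposed to at least 5 concentrations with n = 24 per concentration in technical triplicates, and were screened within 15 minutes–3 hours. Normalization divided each response by, or reduced it by, the plate vehicle median and multiplied the result by 100.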

Dugesia japonica [12] = assay: contracted body shape incidence (% planarians (vehicle-normalised)); higher = higher incidence or increase relative to vehicle control
How it was run: as §3

Dugesia japonica [13] = assay: resting fraction in blue light vs vehicle (difference in fraction x100 vs vehicle); higher = higher incidence or increase relative to vehicle control
How it was run: as §4

Dugesia japonica [14] = assay: total locomotor bursts minus vehicle (bursts difference vs vehicle); higher = higher incidence or increase relative to vehicle control
How it was run: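 Fasted Dugesia japonica planarians, one per well of a sealed 48-well plate in 200 μL solution, were tested 15 min–3 h after exposure to half- or quarter-log concentration series. The vehicle was 0.5% DMSO or water. Total locomotor bursts, an unstimulated behaviour, came from image-based object tracking, with technical triplicates totalling n = 24. Each planarian's value had the plate vehicle-control median subtracted, without ×100 scaling. The value is the median normalised response, and crawled-out worms were excluded.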

Dugesia japonica [15] = assay: any abnormal body shape incidence (% planarians (vehicle-normalised)); higher = higher incidence or increase relative to vehicle control
How it was run: as §3

Dugesia japonica [16] = assay: hyperkinesis incidence (% planarians (vehicle-normalised)); higher = higher incidence or increase relative to vehicle control
How it was run: as §3

Dugesia japonica [17] = assay: loss of heat-induced scrunching incidence (% planarians (vehicle-normalised)); higher = higher incidence or increase relative to vehicle control
How it was run: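 The incidence of worms lacking a scrunching response to a noxious heat stimulus, normalised to vehicle controls within each plate, is the value listed. It appears ×100 with negatives set to 0. Single D. japonica planarians in 200 μL per well of 48-well plates were exposed to at least 5 concentrations (n = 24 per concentration) and tested within 15 minutes–3 hours, excluding worms that crawled out.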

Dugesia japonica [18] = assay: stickiness incidence (% planarians (vehicle-normalised)); higher = higher incidence or increase relative to vehicle control
How it was run: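 In the Stickiness assay, fasted Dugesia japonica planarians were each placed in one well of a sealed 48-well plate containing 200 μL of solution, with 0.5% DMSO or water as vehicle. Testing took place 15 min–3 h after exposure to half- or quarter-log concentration series. Stickiness was recorded as a binary endpoint, and its incidence was expressed relative to in-plate vehicle incidence after pooling technical triplicates and removing worms that crawled out. Negative values were set to 0 and all values were multiplied by 100.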

| SMILES | speed second 30 s blue light (Dugesia japonica [1]) | speed in dark (Dugesia japonica [2]) | loss of phototaxis incidence (Dugesia japonica [3]) | crawl-out incidence (Dugesia japonica [4]) | speed first 30 s blue light (Dugesia japonica [5]) | C-shape incidence (Dugesia japonica [6]) | corkscrew incidence (Dugesia japonica [7]) | resting fraction in dark (Dugesia japonica [8]) | noxious heat displacement strength (Dugesia japonica [9]) | pharynx extrusion incidence (Dugesia japonica [10]) | anxiety (Dugesia japonica [11]) | contracted body shape incidence (Dugesia japonica [12]) | resting fraction in blue light (Dugesia japonica [13]) | total locomotor bursts minus vehicle (Dugesia japonica [14]) | any abnormal body shape incidence (Dugesia japonica [15]) | hyperkinesis incidence (Dugesia japonica [16]) | loss of heat-induced scrunching incidence (Dugesia japonica [17]) | stickiness incidence (Dugesia japonica [18]) |
| --- | --- | --- | --- | --- | --- | --- | --- | --- | --- | --- | --- | --- | --- | --- | --- | --- | --- | --- |
| CN1CCN(CCCN2c3ccccc3Sc3ccc(Cl)cc32)CC1 [prochloroperazine] (1 µM) | -13.4 | -31 | 4.35 | 4.17 | -22.6 | 0 | 0 | 7.43 | -10.7 | 0 | 9.41 | 0 | 5.37 | 10.5 | 4.35 | 4.35 | 26.1 | ≤ 0 |
| Cc1ncc2n1-c1ccc(Cl)cc1C(c1ccccc1F)=NC2 [midazolam] (10 µM) | 6.88 | -4.66 | ≤ 0 | 0 | 12.7 | 0 | 0 | 0.667 | -18.8 | 0 | -4.77 | 0 | -0.5 | -1.5 | 8.33 | 8.33 | ≤ 0 | ≤ 0 |
| CN(C)CCCN1c2ccccc2CCc2ccccc21 [imipramine] (0.316 µM) | -12.2 | -16.2 | 4.17 | 0 | -17.6 | 0 | 0 | 5.24 | 23.7 | 0 | -0.7 | 4.17 | 1.3 | 5.25 | 8.33 | 0 | ≤ 0 | ≤ 0 |
| CN(C)CCCC1(c2ccc(F)cc2)OCc2cc(C#N)ccc21 (stereo not given) [citalopram hydrobromide] (10 µM) | -12.8 | -7.94 | 16.7 | 0 | 9.22 | 0 | 0 | 1.41 | -8.3 | 0 | 5.9 | 0 | 0.82 | 1.75 | 12.5 | 8.33 | 25 | 12.5 |
| CN[C@H]1CC[C@@H](c2ccc(Cl)c(Cl)c2)c2ccccc21 [sertraline hydrochloride] (1 µM) | -15.7 | 0.19 | ≤ 0 | 0 | -11.7 | 0 | 0 | 5.44 | -12.6 | 0 | 5.35 | 0 | 0 | -2.5 | 12.5 | 12.5 | 4.17 | 8.33 |
| CN1CCN(C2=Nc3cc(Cl)ccc3Nc3ccccc32)CC1 [clozapine] (1 µM) | -79.8 | -73.5 | 8.33 | 0 | -82 | 0 | 0 | 55.3 | -43.5 | 0 | -1.98 | 4.17 | 36.4 | 38.8 | 8.33 | 8.33 | 4.17 | 4.17 |
| CCCCNc1c(C(=O)OCC)c(C)nc2c1cnn2CC [tracazolate hydrochloride] (1 µM) | -8.21 | -16.4 | ≤ 0 | 0 | -20 | 0 | 0 | 1.34 | -26.2 | 0 | -16.4 | 0 | 0.18 | 3.25 | 0 | 0 | ≤ 0 | 8.33 |
| O=C(CCCN1CCC(O)(c2ccc(Br)cc2)CC1)c1ccc(F)cc1 [bromperidol] (1 µM) | -17.1 | -18.6 | ≤ 0 | 12.5 | -39.2 | 0 | 4.35 | 14.6 | -35.1 | 0 | 7.55 | 0 | 17.6 | 2.5 | 17.4 | 17.4 | 30.4 | ≤ 0 |
| O=C1CCc2ccc(OCCCCN3CCN(c4cccc(Cl)c4Cl)CC3)cc2N1 [aripiprazole] (1 µM) | 14.3 | 42.8 | 29.2 | 0 | 26 | 0 | 0 | -2.8 | 14.8 | 0 | 1.67 | 0 | -0.33 | -5.5 | 0 | 0 | ≤ 0 | ≤ 0 |
| Cc1cc2c(s1)Nc1ccccc1N=C2N1CCN(C)CC1 [olanzapine] (3.16 µM) | -75.2 | -69 | ≤ 0 | 4.17 | -79.2 | 8.33 | 0 | 51.2 | -37.1 | 0 | -4.66 | 0 | 34 | 41.2 | 58.3 | 54.2 | 45.8 | ≤ 0 |
